From patent publication EP3368527B1, “PALBOCICLIB TOSYLATE” (Egis Gyógyszergyár Zrt., priority 2015, dated 2017)
Like-named read-outs stand apart in the source and are kept apart here.

Legend:
[1] = for amount of "other unknown contaminants": change after 3 weeks of storage; for Known contaminant 2: RT 1.97 min; for water absorption: under various storage conditions, compared to the isethionate salt
[2] = low relative humidity (10% RH); cited from earlier work
[3] = WO 2005/005426, in words; cited from earlier work
[4] = Dynamic vapour sorption analysis (DVS): water sorption isotherms, hygroscopicity; format: physicochemical; conditions: 25 °C
[5] = RT 1.70 min, 3 weeks, 25 °C 90% RH
[6] = RT 1.70 min, 3 weeks, 40 °C 70% RH
[7] = RT 2.56 min, 3 weeks, 25 °C 90% RH
[8] = RT 2.56 min, 3 weeks, 40 °C 70% RH

For `CC(=O)c1c(C)c2cnc(Nc3ccc(N4CCNCC4)cn3)nc2n(C2CCCC2)c1=O` [palbociclib base Form A, 6-acetyl-8-cyclopentyl-5-methyl-2-{[5-(1-piperazinyl)-2-piridinyl]amino}pyrido[2,3-d]pyrimidin-7(8H)-one], the “Known contaminant 1 (RT 1.85 min)” value ([1]; 3 weeks, 25 °C 90% RH) was 0.03%, the “Known contaminant 2 (RT 1.97 min)” value ([1]; 3 weeks, 25 °C 90% RH) was 0.04% and the Total contamination ([1]; 3 weeks, 25 °C 90% RH) was 0.23%. For the same compound, the Total unknown contaminant ([1]; 3 weeks, 25 °C 90% RH) was 0.16%, the “Unknown contaminant (RT 1.70 min)” value ([1]; 3 weeks, 25 °C 90% RH) was 0.04% and the “Unknown contaminant (RT 2.56 min)” value ([1]; 3 weeks, 25 °C 90% RH) was 0.07%. For the same compound, the “Unknown contaminant (RT 3.04 min)” value ([1]; 3 weeks, 25 °C 90% RH) was 0.05%, the Water content ([1]; 3 weeks, 25 °C 90% RH) was 0.42% m/m% and the “Known contaminant 2 (RT 1.97 min)” value ([1]; 3 weeks, 40 °C 70% RH) was 0.05%. For the same compound, the Total contamination ([1]; 3 weeks, 40 °C 70% RH) was 0.17%, the Total unknown contaminant ([1]; 3 weeks, 40 °C 70% RH) was 0.13% and the “Unknown contaminant (RT 1.70 min)” value ([1]; 3 weeks, 40 °C 70% RH) was 0.05%. The “Unknown contaminant (RT 2.56 min)” value ([1]; 3 weeks, 40 °C 70% RH) was 0.04%, the “Unknown contaminant (RT 3.04 min)” value ([1]; 3 weeks, 40 °C 70% RH) was 0.04% and the Water content ([1]; 3 weeks, 40 °C 70% RH) was 0.41% m/m%. For the same compound, the “Known contaminant 1 (RT 1.85 min)” value ([1]; 3 weeks, 70 °C) was 0.03%, the “Known contaminant 2 (RT 1.97 min)” value ([1]; 3 weeks, 70 °C) was 0.05% and the Total contamination ([1]; 3 weeks, 70 °C) was 0.23%. For the same compound, the Total unknown contaminant ([1]; 3 weeks, 70 °C) was 0.15%, the “Unknown contaminant (RT 1.70 min)” value ([1]; 3 weeks, 70 °C) was 0.04% and the “Unknown contaminant (RT 2.56 min)” value ([1]; 3 weeks, 70 °C) was 0.06%. The “Unknown contaminant (RT 3.04 min)” value ([1]; 3 weeks, 70 °C) was 0.05%, the Water content ([1]; 3 weeks, 70 °C) was 0.39% m/m% and the “Known contaminant 2 (RT 1.97 min)” value ([1]; Starting sample) was 0.04%. For the same compound, the Total contamination ([1]; Starting sample) was 0.13%, the Total unknown contaminant ([1]; Starting sample) was 0.09% and the “Unknown contaminant (RT 1.70 min)” value ([1]; Starting sample) was 0.04%. For the same compound, the “Unknown contaminant (RT 2.56 min)” value ([1]; Starting sample) was 0.05%, the Water content ([1]; Starting sample) was 0.23% m/m% and the “amount of "other unknown contaminants"” value ([1]; in words) was “significantly increases”.

For `CC(=O)c1c(C)c2cnc(Nc3ccc(N4CCNCC4)cn3)nc2n(C2CCCC2)c1=O.Cl.Cl` [palbociclib di-HCI salt], the “amount of water absorbed” value [2] is given as greater than 2 m/m % and the water solubility [3] is given as “suitable water solubility”.

With `CC(=O)c1c(C)c2cnc(Nc3ccc(N4CCNCC4)cn3)nc2n(C2CCCC2)c1=O.O=S(=O)(O)CCO` [palbociclib isethionate Form B] the “Known contaminant 2 (RT 1.97 min)” value ([1]; 3 weeks, 25 °C 90% RH) was 0.09%, the Total contamination ([1]; 3 weeks, 25 °C 90% RH) was 0.28% and the Total unknown contaminant ([1]; 3 weeks, 25 °C 90% RH) was 0.19%. For the same compound, the “Unknown contaminant (RT 1.70 min)” value ([1]; 3 weeks, 25 °C 90% RH) was 0.03%, the “Unknown contaminant (RT 2.56 min)” value ([1]; 3 weeks, 25 °C 90% RH) was 0.16% and the Water content ([1]; 3 weeks, 25 °C 90% RH) was 0.97% m/m%. For the same compound, the “Known contaminant 2 (RT 1.97 min)” value ([1]; 3 weeks, 40 °C 70% RH) was 0.10%, the Total contamination ([1]; 3 weeks, 40 °C 70% RH) was 0.27% and the Total unknown contaminant ([1]; 3 weeks, 40 °C 70% RH) was 0.17%. For the same compound, the “Unknown contaminant (RT 1.70 min)” value ([1]; 3 weeks, 40 °C 70% RH) was 0.03%, the “Unknown contaminant (RT 2.56 min)” value ([1]; 3 weeks, 40 °C 70% RH) was 0.14% and the Water content ([1]; 3 weeks, 40 °C 70% RH) was 0.76% m/m%. For the same compound, the “Known contaminant 2 (RT 1.97 min)” value ([1]; 3 weeks, 70 °C) was 0.09%, the Total contamination ([1]; 3 weeks, 70 °C) was 0.28% and the Total unknown contaminant ([1]; 3 weeks, 70 °C) was 0.19%. The “Unknown contaminant (RT 1.70 min)” value ([1]; 3 weeks, 70 °C) was 0.03%, the “Unknown contaminant (RT 2.56 min)” value ([1]; 3 weeks, 70 °C) was 0.16% and the Water content ([1]; 3 weeks, 70 °C) was 0.83% m/m%. The “Known contaminant 2 (RT 1.97 min)” value ([1]; Starting sample) was 0.09%, the Total contamination ([1]; Starting sample) was 0.29% and the Total unknown contaminant ([1]; Starting sample) was 0.20%. The “Unknown contaminant (RT 1.36 min)” value ([1]; Starting sample) was 0.03%, the “Unknown contaminant (RT 1.70 min)” value ([1]; Starting sample) was 0.03% and the “Unknown contaminant (RT 2.56 min)” value ([1]; Starting sample) was 0.14%. For the same compound, the Water content ([1]; Starting sample) was 0.36% m/m%.

In the case of “palbociclib camsylate salt (1:1) [palbociclib camsylate (1:1) salt]”, the “hygroscopicity (water sorption isotherms)” value (shortened to “hygroscopicity”) [4] is reported as “does not exhibit significant hygroscopicity”.

For “palbociclib citrate (1:1) monohydrate salt”, the “hygroscopicity” value [4] was “exhibits significant hygroscopicity”.

With “palbociclib hydrogen chloride (1:1) salt Form E” the stability ([1]; 3 weeks of storage under various forced conditions, compared to palbociclib base Form A and isethionate salt Form B, in words) was “more stable than the Form A base”, the Total contamination ([1]; 3 weeks, 25 °C 90% RH) was 0.22% and the Total unknown contaminant ([1]; 3 weeks, 25 °C 90% RH) was 0.16%. The Water content ([1]; 3 weeks, 25 °C 90% RH) was 0.45% m/m%, the Total contamination ([1]; 3 weeks, 40 °C 70% RH) was 0.19% and the Total unknown contaminant ([1]; 3 weeks, 40 °C 70% RH) was 0.13%. For the same compound, the Water content ([1]; 3 weeks, 40 °C 70% RH) was 0.41% m/m%, the Total contamination ([1]; 3 weeks, 70 °C) was 0.23% and the Total unknown contaminant ([1]; 3 weeks, 70 °C) was 0.17%. For the same compound, the Water content ([1]; 3 weeks, 70 °C) was 0.42% m/m%, the Unknown contaminant [1, 5] was 0.06% and the Unknown contaminant [1, 6] was 0.06%. The Unknown contaminant ([1]; RT 1.70 min, 3 weeks, 70 °C) was 0.06%, the Unknown contaminant ([1]; RT 1.70 min, Starting sample) was 0.05% and the “Known contaminant 2” value ([1]; 3 weeks, 25 °C 90% RH) was 0.06%. The “Known contaminant 2” value ([1]; 3 weeks, 40 °C 70% RH) was 0.06%, the “Known contaminant 2” value ([1]; 3 weeks, 70 °C) was 0.06% and the “Known contaminant 2” value ([1]; Starting sample) was 0.05%. For the same compound, the Unknown contaminant [1, 7] was 0.10%, the Unknown contaminant [1, 8] was 0.07% and the Unknown contaminant ([1]; RT 2.56 min, 3 weeks, 70 °C) was 0.11%. The Unknown contaminant ([1]; RT 2.56 min, Starting sample) was 0.10%, the Total contamination ([1]; Starting sample) was 0.20% and the Total unknown contaminant ([1]; Starting sample) was 0.15%. For the same compound, the Water content ([1]; Starting sample) was 0.21% m/m%, the “amount of "other unknown contaminants"” value ([1]; in words) was “remains unchanged” and the water absorption ([1]; in words) was “significantly less water absorption”. The “hygroscopicity” value [4] was “does not exhibit significant hygroscopicity”.

With palbociclib maleate (Form I) (1:1) salt the “hygroscopicity” value [4] was “does not exhibit significant hygroscopicity”.

In the case of “palbociclib maleate (Form II) (1:1) salt”, the “hygroscopicity” value [4] is reported as “does not exhibit significant hygroscopicity”.

For palbociclib napsylate (1:1) salt, the “hygroscopicity” value [4] was “does not exhibit significant hygroscopicity”.

With “palbociclib napsylate (1:2) dihydrate salt” the “hygroscopicity” value [4] was “exhibits significant hygroscopicity”.

For palbociclib oxalate (1:1) salt, the “hygroscopicity” value [4] was “does not exhibit significant hygroscopicity”.

In the case of “palbociclib sulphate (C24H29N7O2 . ½ H2SO4 . 2 H2O) dihydrate salt”, the “hygroscopicity” value [4] is reported as “exhibits significant hygroscopicity”.

In the case of palbociclib tosylate (1:1) salt, the solubility (0.1 M HCl (pH=1), 37 °C, 1440 min) is reported as 20.0 mg/mL, the solubility (pH 4.5 (slightly acidic), 37 °C, compared to reference palbociclib base Form A, in words) is reported as “significantly better” and the solubility (pH 4.5 (slightly acidic), 37 °C, compared to reference palbociclib base Form A, in words, listed as palbociclib tosylate salt form) is reported as “significantly better solubility”. For the same compound, the solubility (pH=1, 37 °C, compared to reference palbociclib base Form A, in words) was “comparable”, the solubility (pH=4.5 phosphate buffer, 37 °C, 1440 min) was 0.2 mg/mL and the solubility (pH=6.8 phosphate buffer, 37 °C, 1440 min) was less than 0.03 mg/mL. The Total contamination ([1]; 3 weeks, 25 °C 90% RH) was 0.09%, the Total unknown contaminant ([1]; 3 weeks, 25 °C 90% RH) was 0.09% and the Water content ([1]; 3 weeks, 25 °C 90% RH) was 0.51% m/m%. For the same compound, the Total contamination ([1]; 3 weeks, 40 °C 70% RH) was 0.09%, the Total unknown contaminant ([1]; 3 weeks, 40 °C 70% RH) was 0.09% and the Water content ([1]; 3 weeks, 40 °C 70% RH) was 0.49% m/m%. For the same compound, the Total contamination ([1]; 3 weeks, 70 °C) was 0.10%, the Total unknown contaminant ([1]; 3 weeks, 70 °C) was 0.10% and the Water content ([1]; 3 weeks, 70 °C) was 0.49% m/m%. The Unknown contaminant [1, 5] was 0.04%, the Unknown contaminant [1, 6] was 0.05% and the Unknown contaminant ([1]; RT 1.70 min, 3 weeks, 70 °C) was 0.05%. It also gave an Unknown contaminant ([1]; RT 1.70 min, Starting sample) of 0.04%, an Unknown contaminant [1, 7] of 0.05% and an Unknown contaminant [1, 8] of 0.04%. It also gave an Unknown contaminant ([1]; RT 2.56 min, 3 weeks, 70 °C) of 0.05%, an Unknown contaminant ([1]; RT 2.56 min, Starting sample) of 0.04% and a Total contamination ([1]; Starting sample) of 0.08%. The Total unknown contaminant ([1]; Starting sample) was 0.08%, the Water content ([1]; Starting sample) was 0.34% m/m% and the “amount of "other unknown contaminants"” value ([1]; in words) was “remains unchanged”. The water absorption ([1]; in words) was “significantly less water absorption”, the “hygroscopicity” value ([4]; listed as palbociclib 4-toluenesulfonic acid (1:1) salt) was “does not exhibit significant hygroscopicity” and the “hygroscopicity” value ([4]; listed as palbociclib tosylate salt form) was “surprisingly low hygroscopicity”.
